# Tests used:
# [1] = target: T1, Glucose-6-phosphatase enzyme (G6Pase) (Rattus norvegicus, UniProt P43428); assay: Glucose-6-phosphatase (G6Pase) enzyme activity inhibition assay; assay type: biochemical; details: rat liver microsome-enriched supernatant, 20 mM G6P
# T1 construct: dilutions of the supernatant enriched with microsomes were prepared with buffer; from tissue; host or cells: rat liver, microsome-enriched fraction
# T1 sequence (P43428 1-357): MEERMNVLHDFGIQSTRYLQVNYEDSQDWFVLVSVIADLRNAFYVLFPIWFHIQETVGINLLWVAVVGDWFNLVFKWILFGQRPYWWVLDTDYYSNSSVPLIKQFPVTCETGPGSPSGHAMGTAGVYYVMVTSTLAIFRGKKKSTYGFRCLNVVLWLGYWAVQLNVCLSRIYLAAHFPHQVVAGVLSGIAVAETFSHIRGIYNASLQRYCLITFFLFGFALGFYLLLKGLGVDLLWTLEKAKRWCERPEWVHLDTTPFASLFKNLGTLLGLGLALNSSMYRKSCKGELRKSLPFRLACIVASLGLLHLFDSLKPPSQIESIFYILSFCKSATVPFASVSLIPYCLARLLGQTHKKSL
# Protocol: Livers were removed from 18-h fasted healthy rats (3), which were previously anesthetized with 5% isoflurane ([Unit for Laboratory Animal Medicine, 2023]). Then, they were homogenized in buffer (250 mM sucrose, 1 mM EDTA, 5 mM HEPES, pH 7.4), filtered, and subsequently subjected to differential centrifugation as described by [Andrade-Cetto and Cárdenas-Vázquez (2010)]. Both the microsome-enriched supernatant (containing the enzyme complex glucose-6-phosphatase) and the cytosolic supernatant (containing the enzyme fructose-1,6-bisphosphatase) were collected and stored at −40°C until use.
# Colorimetric assays were carried out to detect the formation of a phosphomolybdate complex, which is proportional to the activity of the G6Pase enzyme complex. The reaction turns blue when G6Pase releases the inorganic phosphate and therefore the lower the color intensity, the greater the inhibition ([Arion, 1989]). […] Finally, the absorbance was measured at 830 nm.
# Finally, for in vitro experiments, absorbance values were transformed into activity percentages following the next formula: Enzyme activity %=AS−ASB/AC−ACB×100
# Where A S is the absorbance of the inhibitor sample at a specific concentration, A SB is the blank of the inhibitor sample, A C is the highest absorbance (without inhibitor), and A CB is the blank of the highest absorbance. […]
# [2] = tested on: STZ-NA-hyperglycemic rats; assay: Fasting glucose and insulin levels, hyperglycemic rats; assay type: in vivo, Wistar rats; details: hyperglycemic rats fasted 12 h, 2 h; glibenclamide 5 mg/kg, EtOH-WCg 30 mg/kg, junceic acid 5.6 mg/kg b.w.
# Protocol: (§1) All procedures carried out on animals were approved by the Academic Ethics and Scientific Responsibility Commission (CEARC) of the School of Sciences, UNAM with protocol numbers PI_2021_08_23, PI_2022_21_05b, and PI_2022_22_07. Wistar rats of both sexes, 8 weeks old, were acquired and maintained under standard bioterium conditions (25°C, 55% humidity and 12:12 h light and dark photoperiod) with water and food ad libitum. Treatment administration (vehicle and samples) was performed orally with the help of an esophageal cannula. Blood samples were obtained from the tail vein and glucose measurements were performed in duplicate using Accu-Chek® Active glucometers. […]
# (§2) Normoglycemic (healthy) and hyperglycemic rats were used after 12 h of fasting selecting those with blood glucose levels between 90 and 110 mg/dL and 180–220 mg/dL, respectively. Before the administration of the treatment and every 30 min for 2 h, glucose levels were determined and additional blood samples (approximately 300 µL) were obtained, which were immediately centrifuged at 10,000 g for 10 min. […] Insulin quantification was performed using the immunoassay Rat/Mouse Insulin ELISA kit EZRMI-13KEMD Millipore/Merck ([Espinoza-Hernández et al., 2021]). […]
# (§3) Data are presented as mean ± standard error of the mean (SEM). […] Differences detected with p < 0.05 were considered statistically significant. […]
# [3] = tested on: STZ-NA-hyperglycemic rats; assay: Evaluation of the hypoglycemic effect (acute glucose curves); assay type: in vivo, Wistar rats
# Protocol: (§4) All procedures carried out on animals were approved by the Academic Ethics and Scientific Responsibility Commission (CEARC) of the School of Sciences, UNAM with protocol numbers PI_2021_08_23, PI_2022_21_05b, and PI_2022_22_07. Wistar rats of both sexes, 8 weeks old, were acquired and maintained under standard bioterium conditions (25°C, 55% humidity and 12:12 h light and dark photoperiod) with water and food ad libitum. Treatment administration (vehicle and samples) was performed orally with the help of an esophageal cannula. Blood samples were obtained from the tail vein and glucose measurements were performed in duplicate using Accu-Chek® Active glucometers.
# In summary hyperglycemia was induced as described by [Masiello et al. (1998)], rats fasted for 12 h were administered intraperitoneally with 150 mg/kg b. w. of NA and, 15 min later, 65 mg/kg b. w. of STZ was injected intravenously. After 2 weeks, animals with blood glucose values above 180 mg/dL were selected to perform the tests described below.
# Basal glucose levels were assessed before giving the treatments. Immediately after the administration of treatments, glucose levels were monitored every hour for 3 h ([Espinoza-Hernández et al., 2021]). Thirty rats fasted for 4 h were divided into five groups (n = 6 each group): 1. Normoglycemic Control (N), administered with physiological solution (vehicle); 2. Hyperglycemic Control (H), which received physiological solution; 3. Hyperglycemic Control + glibenclamide, which was administered with 5 mg/kg b. w. (Aurax®) (HGli) ([Berridge et al., 1992]); 4. Hyperglycemic Group + EtOH-WCg, which received 30 mg/kg b. w. (HCg); and 5. Hyperglycemic Group + junceic acid, administered with 5.6 mg/kg b. w. (HJa).
# [4] = tested on: normoglycemic (healthy) rats; assay: Fasting glucose and insulin levels, normoglycemic rats; assay type: in vivo, Wistar rats; details: normoglycemic rats fasted 12 h, 2 h, glibenclamide 5 mg/kg
# Protocol: as §4, §2, §3
# [5] = tested on: normoglycemic (healthy) rats; assay: Insulin tolerance tests (insulin sensitivity assessment); assay type: in vivo, Wistar rats; details: healthy rats fasted 4 h
# Protocol: as §4
# First, basal glucose was determined and, immediately after, treatments were given. Forty-5 min later, glucose levels were measured and then isophane insulin (Aurax®; 0.5 U/kg b. w.) was administered intraperitoneally. Glucose levels were monitored at minutes 15, 30, 60, and 120 after insulin injection. In total, 24 rats were divided into four groups (n = 6 each group): 1. Control, which received physiological solution (C); 2. […]
# Where Tx is the value of glucose or insulin at each time and T0 is the baseline value. Next, AUC were calculated and compared by applying t tests for intergroup comparisons and repeated measures ANOVA followed by Dunnett post hoc tests for intragroup comparisons. […]
# [6] = tested on: STZ-NA-hyperglycemic rats; assay: Postprandial glucose and insulin levels (glucose tolerance test), hyperglycemic rats; assay type: in vivo, Wistar rats; details: glucose load 2 g/kg
# Protocol: as §1, §2, §3
# [7] = tested on: normoglycemic (healthy) rats; assay: Postprandial glucose and insulin levels (glucose tolerance test), normoglycemic rats; assay type: in vivo, Wistar rats; details: glucose load 2 g/kg
# Protocol: as §4, §2, §3
smiles,measurement,setting,value
"O=C(/C=C/c1ccc(O)c(O)c1)O[C@@H]1C[C@](O)(C(=O)O)C[C@@H](O)[C@H]1O [Clorogenic acid, chlorogenic acid]",IC50,[1],346 µM
same,Inhibition %,[1],83%
COc1ccc(Cl)cc1C(=O)NCCc1ccc(S(=O)(=O)NC(=O)NC2CCCCC2)cc1 [glibenclamide],effect on blood glucose in fasting,[2],significant hypoglycemic effect
same,effect on plasma insulin in fasting,[2],increase in plasma insulin
same,hypoglycemic effect compared with the hyperglycemic control group (H),"[3]; 60 min after administration, maintained throughout the experiment, p < 0.05",significant hypoglycemic effect
same,glucose decrease at the end of the study,"[3]; STZ-NA-hyperglycemic rats fasted 4 h, oral, 3 h curve, glibenclamide 5 mg/kg, EtOH-WCg 30 mg/kg, junceic acid 5.6 mg/kg b.w.",57%
same,decrease of total blood glucose (AUC) compared with control (H),"[3]; STZ-NA-hyperglycemic rats fasted 4 h, oral, glibenclamide 5 mg/kg, EtOH-WCg 30 mg/kg, junceic acid 5.6 mg/kg b.w.",65%
same,effect on plasma insulin in fasting,[4]; EtOH-WCg 30 mg/kg b.w.,increase in plasma insulin
same,effect on blood glucose in fasting,"[4]; EtOH-WCg 30 mg/kg, junceic acid 5.6 mg/kg b.w.",significant hypoglycemic effect
CCc1ccc(CCOc2ccc(CC3SC(=O)NC3=O)cc2)nc1 (stereo not drawn) [pioglitazone],inverse AUC and KITT analyzes compared with control (C),"[5]; insulin tolerance test, 120 min",eliminated more glucose throughout the experiment at a higher removal rate than C
same,potentiation of the glucose-lowering effect of insulin compared with control (C),"[5]; isophane insulin 0.5 U/kg i.p. 45 min after treatment, pioglitazone 20 mg/kg, EtOH-WCg 30 mg/kg, junceic acid 5.6 mg/kg b.w.",exacerbated the glucose-lowering effect of insulin
CCOc1cc(CC(=O)N[C@@H](CC(C)C)c2ccccc2N2CCCCC2)ccc1C(=O)O [repaglinide],increase of insulin levels,"[6]; at 30 min, repaglinide 1 mg/kg b.w.",under 25%
same,effect on postprandial hyperglycemia after the glucose load,"[6]; repaglinide 1 mg/kg, EtOH-WCg 30 mg/kg, junceic acid 5.6 mg/kg b.w.",significantly decreased the hyperglycemic peak
same,increase of insulin levels,"[7]; healthy rats, at 30 min, repaglinide 1 mg/kg b.w.",more than 500%
same,effect on the hyperglycemic peak after the glucose load,"[7]; normoglycemic rats, repaglinide 1 mg/kg, EtOH-WCg 30 mg/kg, junceic acid 5.6 mg/kg b.w.",significantly decreased the hyperglycemic peak
